Several values for one entry are separate records, joined by “and”; a condition that tells them apart may be missing. Equal entries are not always repeated.
Tests used:
[1] = Log P=log([solute]octanol/[solute]water), un-ionized compound; cited from earlier work
cholinesterase (ChE) = conditions: human whole blood diluted 10 times, acetylthiocholine 1.8 mg/mL, 5 min incubation in capillary, room temperature
Protocol: For testing of a particular solvent, 5 μL blood sample (diluted) was injected into the capillary with the extraction solvent plug immediately after the mixing the acetylthiocholine into the blood. After the 5 min incubation in capillary, the TCh/ATch ratio was measured using SFME nanoESI MS. For the control, 5 min after the mixing acetylthiocholine into the diluted blood, the sample was taken and analyzed immediately using SFME nanoESI MS with ethyl acetate as the extraction phase. Spray voltage of 1.5 kV was used for nanoESI.
SFME-nanoESI was applied for monitoring the enzymatic activity of cholinesterase (ChE) in whole blood samples. […] The blood sample was diluted 10 times to slow down the reaction rate as well as to facilitate the slug flows for SFME. The substrate acetylthiocholine iodine was added into the diluted blood sample at a concentration of 1.8 mg/mL, and then 5 μL sample was taken immediately and injected into the capillary with 5 μL extraction phase. The capillary with the sample and the extraction solvent was left in room temperature 25° C. for incubation. The SFME-nanoESI could be performed repeatedly on the same sample and the ratio of the substrate ATCh and the reaction product TCh could be monitored as a function of time to characterize the enzymatic activity of the ChE. […]

Compound | Partition coefficient Log P [1] | reduction of ChE activity due to contact with extraction solvent (cholinesterase (ChE))
CN1[C@H]2CC[C@@H]1[C@@H](C(=O)O)[C@@H](OC(=O)c1ccccc1)C2 [benzoylecgonine] | −0.6 and −0.59 | –
ClC(Cl)Cl [chloroform] | – | more than 60%
CCOC(C)=O [ethyl acetate] | – | minimal
CN[C@@H](C)Cc1ccccc1 [methamphetamine] | 2.1 | –
N[C@@H](Cc1ccccc1)C(=O)O [phenylalanine] | −1.38 | –

— US10559456B2, “Systems and methods for analyzing an extracted sample using an immiscible extraction solvent” (priority 2014, dated 2020)
